Experimental data: ChEMBL document CHEMBL1143651, “Design and synthesis of 6-anilinoindazoles as selective inhibitors of c-Jun N-terminal kinase-3” (Bioorg Med Chem Lett, 2005)

How the values were obtained:
[1] = target: Mitogen-activated protein kinase 8 (Homo sapiens, UniProt P45983); test: Inhibitory concentration against c-Jun N-terminal kinase 1
[2] = target: Mitogen-activated protein kinase 10 (Homo sapiens, UniProt P53779); test: Inhibitory concentration against c-Jun N-terminal kinase 3
[3] = target: Mitogen-activated protein kinase 14 (Homo sapiens, UniProt Q16539); test: Inhibitory concentration against Mitogen-activated protein kinase p38 alpha
Sequence of Mitogen-activated protein kinase 14 (Q16539 whole entry): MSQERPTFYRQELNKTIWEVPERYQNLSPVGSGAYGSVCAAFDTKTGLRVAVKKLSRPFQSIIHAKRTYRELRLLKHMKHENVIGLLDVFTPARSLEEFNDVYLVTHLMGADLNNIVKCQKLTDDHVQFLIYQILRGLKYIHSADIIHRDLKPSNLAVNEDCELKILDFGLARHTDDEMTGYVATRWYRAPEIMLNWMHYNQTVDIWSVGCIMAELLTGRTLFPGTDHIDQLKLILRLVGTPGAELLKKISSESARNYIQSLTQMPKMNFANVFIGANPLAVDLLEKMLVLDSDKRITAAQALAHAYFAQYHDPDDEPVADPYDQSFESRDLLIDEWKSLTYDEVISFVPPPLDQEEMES

Sequence of Mitogen-activated protein kinase 8 (P45983 whole entry): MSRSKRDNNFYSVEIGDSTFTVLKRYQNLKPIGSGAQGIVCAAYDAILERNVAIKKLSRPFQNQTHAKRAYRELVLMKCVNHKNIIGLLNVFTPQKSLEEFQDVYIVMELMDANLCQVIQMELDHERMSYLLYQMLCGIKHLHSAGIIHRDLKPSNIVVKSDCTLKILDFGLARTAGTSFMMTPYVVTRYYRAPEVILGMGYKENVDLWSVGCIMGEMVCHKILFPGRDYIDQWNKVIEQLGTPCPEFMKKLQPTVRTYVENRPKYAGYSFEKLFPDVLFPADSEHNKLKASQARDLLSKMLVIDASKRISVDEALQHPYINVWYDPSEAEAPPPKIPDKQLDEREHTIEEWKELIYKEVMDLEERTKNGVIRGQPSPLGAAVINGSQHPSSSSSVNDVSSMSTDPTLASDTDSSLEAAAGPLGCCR
Sequence of Mitogen-activated protein kinase 10 (P53779 whole entry): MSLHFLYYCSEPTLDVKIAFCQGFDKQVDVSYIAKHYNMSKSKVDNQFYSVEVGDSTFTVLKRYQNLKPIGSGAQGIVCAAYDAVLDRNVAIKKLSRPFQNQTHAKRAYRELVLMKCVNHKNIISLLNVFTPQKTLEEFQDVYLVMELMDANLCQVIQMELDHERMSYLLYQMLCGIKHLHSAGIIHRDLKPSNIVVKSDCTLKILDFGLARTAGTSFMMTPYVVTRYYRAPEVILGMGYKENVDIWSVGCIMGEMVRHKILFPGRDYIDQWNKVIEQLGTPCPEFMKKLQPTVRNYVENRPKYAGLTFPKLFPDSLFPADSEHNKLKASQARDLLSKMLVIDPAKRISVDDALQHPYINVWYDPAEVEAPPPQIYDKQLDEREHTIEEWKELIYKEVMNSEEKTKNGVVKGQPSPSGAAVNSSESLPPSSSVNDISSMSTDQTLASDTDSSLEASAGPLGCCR

Work on O=C(NC1CCNCC1)c1cccc(-c2n[nH]c3cc(Nc4ccccc4Cl)ccc23)c1 yielded an IC50 [1] of 71 nM, an IC50 [2] of 1.4 nM and an IC50 [3] of 4.4 nM.
Compound O=C(O)c1cccc(-c2n[nH]c3cc(Nc4ccccc4Cl)ccc23)c1 has an IC50 [1] of 61 nM, an IC50 [2] of 5.3 nM and an IC50 [3] of 24 nM.
O=C(O)c1ccc(-c2n[nH]c3cc(Nc4ccccc4Cl)ccc23)cc1 showed an IC50 [1] of 246 nM, an IC50 [2] of 32 nM and an IC50 [3] of 13 nM.
In the case of O=C(NCCCN1CCOCC1)c1cccc(-c2n[nH]c3cc(Nc4ccccc4Cl)ccc23)c1, the IC50 [1] is reported as 228 nM, the IC50 [2] is reported as 3.4 nM and the IC50 [3] is reported as 3.7 nM.
In the case of CN(C)CCNC(=O)c1cccc(-c2n[nH]c3cc(Nc4ccccc4Cl)ccc23)c1, the IC50 [1] is reported as 698 nM, the IC50 [2] is reported as 21 nM and the IC50 [3] is reported as 16 nM.
NC(=O)c1cccc(-c2n[nH]c3cc(Nc4ccccc4Cl)ccc23)c1 showed an IC50 [1] of 81 nM, an IC50 [2] of 3.3 nM and an IC50 [3] of 3.2 nM.
Work on COc1ccccc1Nc1ccc2c(-c3ccccc3)n[nH]c2c1 yielded an IC50 [1] of 1600 nM, an IC50 [2] of 202 nM and an IC50 [3] of 46 nM.
With c1ccc(Nc2ccc3c(-c4ccccc4)n[nH]c3c2)cc1 the IC50 [1] was > 10000 nM, the IC50 [2] was 48 nM and the IC50 [3] was 30 nM.
CN(C)CCNC(=O)c1ccc(-c2n[nH]c3cc(Nc4ccccc4Cl)ccc23)cc1 gave an IC50 [1] of 45 nM, an IC50 [2] of 1.9 nM and an IC50 [3] of 8.7 nM.
In the case of Clc1ccccc1Nc1ccc2c(-c3ccccc3)n[nH]c2c1, the IC50 [1] is reported as 5350 nM, the IC50 [2] is reported as 30 nM and the IC50 [3] is reported as 18 nM.
